# Like-named read-outs stand apart in the source and are kept apart here.
# Assays:
# [1] = system: HepG2 hepatocellular carcinoma; assay: In vitro anti-proliferative activity, SRB assay, HepG2; format: cell-based, human
# Method: (§1) HepG2 liver cancer, MCF-7 breast cancer and Caco-2 cancer cell lines were obtained from the National Cancer Institute (Cairo, Egypt). Caco-2 cells were grown in DMEM while HepG2 and MCF-7 were grown in RPMI-1640. Media were supplemented with 10% heat-inactivated FBS, 50 units/mL of penicillin and 50 µg/mL of streptomycin and maintained at 37 °C in a humidified atmosphere containing 5% CO2. The cells were maintained as a “monolayer culture” by serial subculturing. Cytotoxicity was determined using the sulforhodamine B (SRB) method as previously described by Skehan et al.[50] Exponentially growing cells were collected using 0.25% trypsin-EDTA and seeded in 96-well plates at 1000–2000 cells/well in supplemented DMEM medium. After 24 h, cells were incubated for 72 h with various concentrations of the tested compounds as well as doxorubicin as the reference compound. Following 72 h of treatment, the cells were fixed with 10% trichloroacetic acid for 1 h at 4 °C. Wells were stained for 10 min at room temperature with 0.4% SRB dissolved in 1% acetic acid. The plates were air dried for 24 h, and the dye was solubilized with Tris–HCl for 5 min on a shaker at 1600 rpm. The optical density (OD) of each well was measured spectrophotometrically at 564 nm with an ELISA microplate reader (ChroMate-4300, FL, USA). The IC50 values were calculated according to the equation for Boltzmann sigmoidal concentrationeresponse curve using the nonlinear regression models (GraphPad, Prism Version 5). The results reported are means of at least three separate experiments. Significant differences were analyzed by one-way ANOVA wherein the differences were considered to be significant at p < .05.
# (§2) All the newly synthesized target coumarin sulfonamides were evaluated for their in vitro anti-proliferative activity against three human tumor cancer cell lines, HepG2 hepatocellular carcinoma, MCF-7 breast cancer, and Caco-2 colon cancer, using SRB colorimetric assay as described by Skehan et al.^50 Doxorubicin was involved in the experiments as a reference cytotoxic compound.
# MCF-7 breast cancer = assay: In vitro anti-proliferative activity, SRB assay, MCF-7; format: cell-based, human; conditions: mean ± SE of three experiments
# Method: as §1, §2
# Caco-2 colon cancer = assay: In vitro anti-proliferative activity, SRB assay, Caco-2; format: cell-based, human
# Method: as §1, §2
# [2] = Homo sapiens, HepG2, 72 h, 72 h incubation, SRB, mean ± SE of three experiments, read-out: IC50 HepG2
# [3] = Homo sapiens, HepG2, training set, Table 4, -log IC50 (IC50 in µM), read-out: HepG2 Experimental activity (pIC50) (converted)
# [4] = Homo sapiens, MCF7, 72 h incubation
# [5] = Homo sapiens, Caco-2, 72 h incubation, SRB, mean ± SE of three experiments, read-out: IC50 Caco-2
# [6] = Homo sapiens, Caco-2, training set, Table 4, -log IC50 (IC50 in µM), read-out: Caco-2 Experimental activity (pIC50) (converted)
# [7] = Homo sapiens, HepG2, external validation test compounds, Table 5, -log IC50 (IC50 in µM), read-out: HepG2 Experimental activity (pIC50) (converted)
# [8] = 72 h incubation, SRB, mean ± SE of three experiments, read-out: IC50 HepG2
# [9] = training set, Table 4, -log IC50 (IC50 in µM)
Molecule,"IC50 [1, 2] [µM]","IC50 [1, 3] [µM]",IC50 (MCF-7 breast cancer; [4]) [µM],IC50 (Caco-2 colon cancer; [5]) [µM],IC50 (Caco-2 colon cancer; [6]) [µM],melting point [°C],"IC50 [1, 7] [µM]","IC50 ([1]; Homo sapiens, HepG2, 72 h incubation, SRB, mean ± SE of three experiments, read-out: IC50 HepG2) [µM]","IC50 [1, 8] [µM]","IC50 (Caco-2 colon cancer; Homo sapiens, Caco-2, external validation test compounds, Table 5, -log IC50 (IC50 in µM), read-out: Caco-2 Experimental activity (pIC50) (converted)) [µM]","HepG2 Experimental activity (pIC50) [1, 9]","IC50 (MCF-7 breast cancer; 72 h incubation, read-out: IC50 MCF7) [µM]","IC50 (Caco-2 colon cancer; 72 h incubation, SRB, mean ± SE of three experiments, read-out: IC50 Caco-2) [µM]",Caco-2 Experimental activity (pIC50) (Caco-2 colon cancer; [9])
"CC(=NNc1c(Cl)cc(Cl)cc1Cl)c1ccc(NS(=O)(=O)c2ccc3oc(=O)ccc3c2)cc1 [Compound 8c, 2-Oxo-N-(4–(1-(2–(2,4,6-trichlorophenyl)hydrazono)ethyl)phenyl)-2H-chromene-6-sulfonamide]",29.8 ± 2.21,29.8,> 200,76.9 ± 6.59,76.9,259 to 260,–,–,–,–,–,–,–,–
"CC(=NNC1=NC(=O)C(CC(=O)O)S1)c1ccc(NS(=O)(=O)c2ccc3oc(=O)ccc3c2)cc1 (stereo not shown) [Compound 15c, 2–(4-Oxo-2–(2-(1–(4-(2-oxo-2H-chromene-6-sulfonamido)phenyl)ethylidene) hydrazinyl)-4,5-dihydrothiazol-5-yl)acetic acid]",7.57 ± 0.66,–,16.3 ± 1.48,46.1 ± 3.17,46.1,193 to 194,7.57,–,–,–,–,–,–,–
"CC(=NNc1ccc([N+](=O)[O-])cc1[N+](=O)[O-])c1ccc(NS(=O)(=O)c2ccc3oc(=O)ccc3c2)cc1 [Compound 8b, N-(4–(1-(2–(2,4-dinitrophenyl)hydrazono)ethyl)phenyl)-2-oxo-2H-chromene-6-sulfonamide]",–,11.8,126 ± 10.9,89.6 ± 7.26,89.6,269 to 270,–,11.8 ± 1.34,–,–,–,–,–,–
"COc1cccc2c1C(=O)c1c(O)c3c(c(O)c1C2=O)C[C@@](O)(C(=O)CO)C[C@@H]3O[C@H]1C[C@H](N)[C@H](O)[C@H](C)O1 [Doxorubicin, reference compound]",6.9 ± 2.05,–,3.18 ± 0.32,4.1 ± 1.37,–,–,–,–,5.43 ± 0.24,–,–,–,–,–
"O=c1ccc2cc(S(=O)(=O)Nc3ccc(S(=O)(=O)Nc4ccccn4)cc3)ccc2o1 [Compound 4b, 2-Oxo-N-(4-(N-(pyridin-2-yl)sulfamoyl)phenyl)-2H-chromene-6-sulfonamide]",8.08 ± 0.51,8.08,22.9 ± 2.04,66.9 ± 6.07,66.9,237 to 239,–,–,–,–,–,–,–,–
"CC(=NNc1nc(C)cs1)c1ccc(NS(=O)(=O)c2ccc3oc(=O)ccc3c2)cc1 [Compound 11a, N-(4–(1-(2–(4-methylthiazol-2-yl)hydrazono)ethyl)phenyl)-2-oxo-2H-chromene-6-sulfonamide]",> 200,–,13.9 ± 1.19,10.1 ± 0.9,–,257 to 259,–,–,–,–,–,–,–,–
"CCOC(=O)c1sc(NN=C(C)c2ccc(NS(=O)(=O)c3ccc4oc(=O)ccc4c3)cc2)nc1C [Compound 11b, Ethyl 4-methyl-2–(2-(1–(4-(2-oxo-2H-chromene-6-sulfonamido)phenyl)ethylidene)hydrazinyl)thiazole-5-carboxylate]",54.3 ± 3.87,54.3,63.4 ± 5.69,145 ± 8.02,145,180 to 182,–,–,–,–,–,–,–,–
"CC(=NNc1nc(C)c(N=Nc2ccc(Cl)cc2)s1)c1ccc(NS(=O)(=O)c2ccc3oc(=O)ccc3c2)cc1 [Compound 11c, N-(4–(1-(2–(5-((4-chlorophenyl)diazenyl)-4-methylthiazol-2-yl)hydrazono)ethyl)phenyl)-2-oxo-2H-chromene-6-sulfonamide]",72.5 ± 6.33,72.5,34.7 ± 2.94,108 ± 11.4,108,250 to 252,–,–,–,–,–,–,–,–
"NS(=O)(=O)c1ccc(NS(=O)(=O)c2ccc3oc(=O)ccc3c2)cc1 [Compound 4a, 2-Oxo-N-(4-sulfamoylphenyl)-2H-chromene-6-sulfonamide]",35.5 ± 2.93,35.5,50.7 ± 4.61,193 ± 15.3,193,266 to 268,–,–,–,–,–,–,–,–
"CC(=NNc1nc(-c2cc3ccccc3oc2=O)cs1)c1ccc(NS(=O)(=O)c2ccc3oc(=O)ccc3c2)cc1 [Compound 13b, 2-Oxo-N-(4–(1-(2–(4-(2-oxo-2H-chromen-3-yl)thiazol-2-yl)hydrazono)ethyl)phenyl)-2H-chromene-6-sulfonamide]",11.8 ± 1.16,11.8,> 200,96.6 ± 5.37,96.6,201 to 202,–,–,–,–,–,–,–,–
"CC(=NNC(N)=S)c1ccc(NS(=O)(=O)c2ccc3oc(=O)ccc3c2)cc1 [Compound 9, 2–(1-(4–(2-Oxo-2H-chromene-6-sulfonamido)phenyl)ethylidene)hydrazine carbothioamide]",163 ± 10.2,163,> 200,> 200,–,253 to 254,–,–,–,–,–,–,–,–
"CC(=O)c1ccc(NS(=O)(=O)c2ccc3oc(=O)ccc3c2)cc1 [Compound 6, N-(4-acetylphenyl)-2-oxo-2H-chromene-6-sulfonamide]",25.6 ± 1.36,–,> 200,81.5 ± 6.89,–,–,25.6,–,–,81.5,–,–,–,–
"N-(4–(1-(2–(4-methyl-5-oxo-4,5-dihydrothiazol-2-yl)hydrazono)ethyl)phenyl)-2-oxo-2H-chromene-6-sulfonamide [Compound 15b]",–,–,–,–,–,–,–,–,25.1 ± 2.08,–,−1.3992,10.6 ± 1.35,175 ± 12.3,−2.2428
"CC(=NNc1ccccc1)c1ccc(NS(=O)(=O)c2ccc3oc(=O)ccc3c2)cc1 [Compound 8a, 2-Oxo-N-(4–(1-(2-phenylhydrazono)ethyl)phenyl)-2H-chromene-6-sulfonamide]",27 ± 2.01,27,14.3 ± 1.18,8.53 ± 0.72,8.53,178 to 180,–,–,–,–,–,–,–,–
"CC(=NNS(=O)(=O)c1ccc(C)cc1)c1ccc(NS(=O)(=O)c2ccc3oc(=O)ccc3c2)cc1 [Compound 8d, 2-Oxo-N-(4–(1-(2-tosylhydrazono)ethyl)phenyl)-2H-chromene-6-sulfonamide]",89.9 ± 7.63,–,> 200,16 ± 1.32,16,163 to 165,89.9,–,–,–,–,–,–,–
"CC(=NNc1nc(C)c(N=Nc2ccc(C)cc2)s1)c1ccc(NS(=O)(=O)c2ccc3oc(=O)ccc3c2)cc1 [Compound 11d, N-(4–(1-(2–(4-methyl-5-(p-tolyldiazenyl)thiazol-2yl)hydrazono)ethyl)phenyl)-2-oxo-2H-chromene-6-sulfonamide]",> 200,–,> 200,16.1 ± 1.28,16.1,258 to 259,–,–,–,–,–,–,–,–
